Molecules are shown by their SMILES. Where only a bound is given, the exact number is not on record here.

Experiment [1] concerns BaF3. The experiment is described as follows: cells. To be noted: Mus musculus, BaF3, 72 h.
The subject of experiment [2] is MOLM-13. The experiment is described as follows: cells. The following applies: Homo sapiens, MOLM-13, 72 h.
Experiment [3] deals with MOLM-14. The experiment is described as follows: cells. To be noted: Homo sapiens, MOLM-14, 72 h.
Experiment [4] has as its system Receptor-type tyrosine-protein kinase FLT3 (Homo sapiens), P36888 [UNDEFINED MUTATION].
The test system of experiment [5] is MV4-11. The experiment is described as follows: cells. To be noted: Homo sapiens, MV4-11, 48 h.
Description: Antiproliferative activity against human MV4-11 cells assessed as reduction in cell viability after 48 hrs by Alamar Blue assay
The target of experiment [6] is Receptor-type tyrosine-protein kinase FLT3 (Homo sapiens, UniProt P36888). Put plainly: Binding affinity to human FLT3 assessed as dissociation constant.
Experiment [7] relates to MV4-11. The experiment is described as follows: cells. To be noted: Homo sapiens, MV4-11, 72 h.
Description: Cytotoxicity against human MV4-11 cells assessed as cell viability incubated for 72 hrs by Cell titer-blue assay
Experiment [8] has as its system BaF3. The experiment is described as follows: cells. To be noted: Mus musculus, BaF3, 72 h. This is another data set of the same source.
Experiment [9] relates to BaF3. Put plainly: cells. To be noted: Mus musculus, BaF3, 72 h. This is another data set of the same source.
Experiment [10] concerns MV4-11. The experiment is described as follows: Cytotoxicity activity against human MV4-11 cells assessed as reduction in cell viability measured after 48 hrs. Format: functional, cell-based. The following applies: MV4-11, 48 h.
The subject of experiment [11] is MOLM-13. Put plainly: Cytotoxicity activity against human MOLM-13 cells assessed as reduction in cell viability measured after 48 hrs. Format: functional, cell-based. To be noted: MOLM-13, 48 h.
The test system of experiment [12] is MV4-11. Put plainly: Growth inhibition of human MV4-11 cells incubated for 72 hrs by CCK-8 assay. Format: functional.
The test system of experiment [13] is MOLM-13. Put plainly: Growth inhibition of human MOLM-13 cells incubated for 72 hrs by CCK-8 assay. Format: functional. (Formazan colour is commonly taken as a measure of viable cells.)
Experiment [14] has as its system MOLM-14. Put plainly: Growth inhibition of human MOLM-14 cells incubated for 72 hrs by CCK-8 assay. The class given is functional.
In experiment [15] the target is Receptor-type tyrosine-protein kinase FLT3 (Homo sapiens, UniProt P36888, ITD).
The next experiment deals with T1, Aurora kinase A (Homo sapiens, UniProt O14965).
T1 sequence (O14965 whole entry): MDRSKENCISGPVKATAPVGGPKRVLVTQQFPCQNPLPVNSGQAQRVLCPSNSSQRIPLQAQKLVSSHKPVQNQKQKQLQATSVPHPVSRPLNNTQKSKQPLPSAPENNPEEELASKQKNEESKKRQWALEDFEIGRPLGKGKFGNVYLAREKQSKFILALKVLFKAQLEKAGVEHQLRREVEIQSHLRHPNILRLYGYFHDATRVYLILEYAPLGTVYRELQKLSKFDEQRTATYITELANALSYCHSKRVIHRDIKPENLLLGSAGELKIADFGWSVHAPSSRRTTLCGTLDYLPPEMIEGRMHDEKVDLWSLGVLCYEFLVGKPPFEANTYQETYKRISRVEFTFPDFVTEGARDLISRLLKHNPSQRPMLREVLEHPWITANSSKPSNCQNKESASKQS
Put plainly: Inhibition of Aurora-A (unknown origin) by kinase-glo luminescent assay. For orientation: Kinase-Glo measures the ATP left after a reaction by luminescence.

The next experiment concerns HL-60. The experiment is described as follows: Growth inhibition of human HL-60 cells incubated for 4 days by WST assay. Format: functional. The following applies: HL-60, 96 h, time 4 day.
Experiment [16] concerns the target Receptor-type tyrosine-protein kinase FLT3 (Homo sapiens, UniProt P36888, D835Y). The experiment is described as follows: Inhibition of FLT3-D835Y mutant (unknown origin).
Experiment [17] relates to MV4-11. The experiment is described as follows: Antiproliferative activity against human MV4-11 cells assessed as reduction in cell proliferation measured after 24 hrs by MTT assay. To be noted: MV4-11, 24 h. Format: functional, cell-based.
The nature of experiment [18]: Antiproliferative activity against human MOLM16 cells expressing FLT3-ITD mutant assessed as inhibition of cell proliferation measured after 72 hrs by celltiter-glo luminescent cell viability assay. Format: functional, cell-based, MOLM-16. The following applies: MOLM16, 72 h. (In ATP-based viability assays light output follows the ATP content of the culture.)
Experiment [19] deals with Tyrosine-protein kinase JAK2 (Homo sapiens, UniProt O60674). Put plainly: Inhibition of JAK2 (unknown origin) in presence of ATP.
The target of experiment [20] is T2, Receptor-type tyrosine-protein kinase FLT3 (Homo sapiens, UniProt P36888).
T2 sequence (P36888 whole entry): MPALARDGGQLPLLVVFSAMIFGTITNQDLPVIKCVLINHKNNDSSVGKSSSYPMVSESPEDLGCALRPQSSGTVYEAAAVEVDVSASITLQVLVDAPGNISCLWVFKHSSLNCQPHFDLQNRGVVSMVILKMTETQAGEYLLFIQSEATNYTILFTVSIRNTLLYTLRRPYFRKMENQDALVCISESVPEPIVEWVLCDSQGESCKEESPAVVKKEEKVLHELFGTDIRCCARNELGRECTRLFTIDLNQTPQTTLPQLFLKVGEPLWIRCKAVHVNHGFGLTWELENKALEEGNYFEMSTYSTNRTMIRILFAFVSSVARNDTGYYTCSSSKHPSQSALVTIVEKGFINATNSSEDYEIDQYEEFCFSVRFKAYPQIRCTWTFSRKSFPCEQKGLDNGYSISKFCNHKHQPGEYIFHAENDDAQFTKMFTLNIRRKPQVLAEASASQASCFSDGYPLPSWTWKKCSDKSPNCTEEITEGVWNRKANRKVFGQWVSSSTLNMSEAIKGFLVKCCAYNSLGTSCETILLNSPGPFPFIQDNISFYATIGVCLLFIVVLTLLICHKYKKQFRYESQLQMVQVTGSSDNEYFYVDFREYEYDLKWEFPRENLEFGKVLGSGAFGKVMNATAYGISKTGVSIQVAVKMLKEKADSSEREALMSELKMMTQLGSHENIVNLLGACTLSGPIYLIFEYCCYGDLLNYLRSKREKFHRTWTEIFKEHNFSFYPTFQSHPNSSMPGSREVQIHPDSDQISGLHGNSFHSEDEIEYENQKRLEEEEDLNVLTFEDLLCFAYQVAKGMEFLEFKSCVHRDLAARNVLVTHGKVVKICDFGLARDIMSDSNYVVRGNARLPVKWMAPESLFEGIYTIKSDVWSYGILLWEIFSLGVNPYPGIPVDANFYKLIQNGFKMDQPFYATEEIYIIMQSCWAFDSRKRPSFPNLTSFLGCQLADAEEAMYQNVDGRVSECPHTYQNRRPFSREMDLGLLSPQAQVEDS
Put plainly: Inhibition of FLT3 (unknown origin) autophosphorylation expressed in human Leukemia cells. Format: cell-based, Leukemia cell.

Sequence of Tyrosine-protein kinase JAK2 (O60674 whole entry): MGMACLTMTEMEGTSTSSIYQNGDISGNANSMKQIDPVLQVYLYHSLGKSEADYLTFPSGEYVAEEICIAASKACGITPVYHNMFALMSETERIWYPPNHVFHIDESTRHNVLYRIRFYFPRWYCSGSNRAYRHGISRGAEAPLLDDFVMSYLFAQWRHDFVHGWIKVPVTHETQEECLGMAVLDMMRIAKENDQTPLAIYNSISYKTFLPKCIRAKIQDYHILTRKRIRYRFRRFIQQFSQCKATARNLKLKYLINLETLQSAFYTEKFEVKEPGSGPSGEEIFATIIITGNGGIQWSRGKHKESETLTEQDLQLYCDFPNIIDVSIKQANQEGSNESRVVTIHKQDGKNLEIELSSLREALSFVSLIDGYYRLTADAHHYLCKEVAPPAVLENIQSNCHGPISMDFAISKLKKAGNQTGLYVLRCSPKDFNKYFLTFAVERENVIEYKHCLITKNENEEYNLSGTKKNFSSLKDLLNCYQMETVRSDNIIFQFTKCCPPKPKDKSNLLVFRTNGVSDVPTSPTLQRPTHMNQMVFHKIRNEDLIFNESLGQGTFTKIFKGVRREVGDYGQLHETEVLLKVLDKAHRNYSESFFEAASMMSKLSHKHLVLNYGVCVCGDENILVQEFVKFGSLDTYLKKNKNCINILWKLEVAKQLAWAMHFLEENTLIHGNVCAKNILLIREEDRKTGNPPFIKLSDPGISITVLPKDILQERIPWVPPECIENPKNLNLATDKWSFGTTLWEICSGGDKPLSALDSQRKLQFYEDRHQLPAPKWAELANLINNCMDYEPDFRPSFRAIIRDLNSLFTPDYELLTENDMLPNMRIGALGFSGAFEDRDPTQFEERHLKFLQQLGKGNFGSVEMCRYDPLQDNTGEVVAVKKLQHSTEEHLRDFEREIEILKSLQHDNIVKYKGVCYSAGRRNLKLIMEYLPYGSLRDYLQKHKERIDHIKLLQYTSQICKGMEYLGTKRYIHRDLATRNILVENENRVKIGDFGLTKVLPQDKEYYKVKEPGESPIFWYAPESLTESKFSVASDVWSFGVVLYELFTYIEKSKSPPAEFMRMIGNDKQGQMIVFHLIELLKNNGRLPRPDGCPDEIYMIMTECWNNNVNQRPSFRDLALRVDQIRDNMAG

Regarding `COc1cc2c(N3CCN(C(=O)Nc4ccc(OC(C)C)cc4)CC3)ncnc2cc1OCCCN1CCCCC1` [TANDUTINIB], the IC50 with BaF3 [1], in the experiment on MOLM-13 [2] and in the experiment on MOLM-14 [3] was 10 nM in each case.

In turn, `Cc1cc2ncc(-c3ccccc3)nc2cc1C` [AG1295] registered an IC5 in experiment [4] of 32 nM. 2200 nM corresponded to half-maximal inhibition in the experiment on MV4-11 [5] (IC50).

Consider `CC(C)Nc1ccnc(Nc2cccc(-c3cccnc3)c2)n1`, for which the Kd in experiment [6] was 3.6 nM. This molecule also came in with an EC50 in the experiment with MV4-11 [7] of 25 nM.

For the molecule `CN1CCC(Nc2nc(Nc3ccc(Oc4ccccc4)cc3)c3c(=O)[nH]cc(Br)c3n2)CC1` [DENFIVONTINIB], the IC50 was found to be 3.5 nM with MV4-11 [5], 7.5 nM in the experiment on MOLM-14 [3], 21.4 nM in the experiment on BaF3 [8] and 38.1 nM in the experiment on BaF3 [9].

`CC(=O)OC[C@H]1O[C@@H](N2N=C(C(F)(F)F)/C(=N\Nc3cccc(C(F)(F)F)c3)C2=O)[C@H](OC(C)=O)[C@@H](OC(C)=O)[C@@H]1OC(C)=O`: the half-maximal inhibitory concentration (IC50) in the experiment with MV4-11 [10] worked out at 4700 nM; in the experiment on MOLM-13 [11] it was 4040 nM.

On to `CCCNc1nc(Nc2ccc(C#N)cc2)ncc1C#CCCCNC(=O)[C@H](C)N(C)C(=O)/C=C/CN(C)C` [FF-10101], for which the figures for the 50% growth inhibitory concentration (GI50) in the experiment on MV4-11 [12], in the experiment on MOLM-13 [13] and in the experiment on MOLM-14 [14] were 0.83 nM, 1.1 nM and 1.5 nM, respectively.

As to `COc1ccc(C(=O)NC(=O)Nc2ccc3c(c2)NC(=O)/C3=C\c2[nH]c(C)c(C(=O)NCCN3CCCC3)c2C)c(F)c1`, the 50% inhibitory concentration (IC50) in experiment [15] was 0.5 nM; against Aurora kinase A it was 0.4 nM.

With `CC1=CC(=O)N(Nc2nc(-c3cccs3)nc3sc(C)c(C)c23)C1=O`, the IC50 in experiment [15] was 16 nM; in experiment [16], 21 nM. The GI50 in the experiment with MV4-11 [12] was 216 nM; in the experiment on HL-60, above 10000 nM.

`C[C@]12O[C@H](C[C@H](O)[C@H]1O)n1c3ccccc3c3c4c(c5c6ccccc6n2c5c31)C(=O)NC4=O`: the IC50 is 12.3 nM in the experiment on MV4-11 [17], 27 nM in experiment [18] and 13 nM in the experiment on MOLM-13 [2].

Regarding `Cn1c2ccccc2c2c3c(c4c5ccccc5n(CCC#N)c4c21)CNC3=O` [GO-6976], the IC50 in experiment [19] was determined as 67.2 nM.

With `CNC(=O)[C@@]1(N)C[C@H]2O[C@]1(C)n1c3ccccc3c3c4c(c5c6ccccc6n2c5c31)C(=O)NC4`, the values for the IC50 (in the experiment on MV4-11 [17]; in [20]) were below 0.25 nM and 0.1 nM, respectively.

For `CC(C)(C)c1cc(NC(=O)Nc2ccc(-n3nc(-c4ccc(OCCN5CCOCC5)cc4)c4c(N)ncnc43)cc2)no1`, in the experiment with MV4-11 [12], the GI50 is below 0.3 nM.

The IC50 is the point on the concentration scale where inhibition reaches its midpoint. As a reminder, the Kd is a measure of binding affinity in units of concentration. A word on the EC50: it is the concentration that produces a half-maximal response. As usually defined, the GI50 is the concentration that inhibits growth by half.

Values taken from ChEMBL document CHEMBL5230089, “Small-Molecule Fms-like Tyrosine Kinase 3 Inhibitors: An Attractive and Efficient Method for the Treatment of Acute Myeloid Leukemia” (J Med Chem, 2020).
